# Data taken from PMC9784689, “Bioactivity Profiling of In Silico Predicted Linear Toxins from the Ants Myrmica rubra and Myrmica ruginodis” (Toxins, 2022).
# Like-named read-outs stand apart in the source and are kept apart here. No end group written: not given here.
# How the values were obtained:
# [1] = tested on: Influenza B/Massachusetts/71 (Yamagata lineage) in MDCK II cells; type: cell-based, influenza B virus; conditions: B/Mass, 100 µM peptides, 48 h
# [2] = tested on: Influenza A/Hamburg/5/09 (H1N1) in MDCK II cells; type: cell-based, influenza A virus; conditions: 100 µM peptides, 48 h
# [3] = tested on: Influenza B/Malaysia/2506/04 (Victoria lineage) in MDCK II cells; type: cell-based, influenza B virus; conditions: B/Mal, 100 µM peptides, 48 h
# [4] = tested on: Escherichia coli, Staphylococcus aureus, Staphylococcus epidermidis, Pseudomonas aeruginosa (strains 50071 and 1117), Micrococcus luteus, Listeria …; experiment: Antibacterial activity, statements for the whole panel of seven strains; type: cell-based; conditions: 100 µM, after 48 h, MH II medium, 37 °C, OD600, triplicate
# [5] = tested on: Influenza A/Hessen/1/03 (H3N2) in MDCK II cells; type: cell-based, influenza A virus; conditions: 100 µM peptides, 48 h
Substance,Normalized to Aprotinin =1 (protection) ([1]; replicate 1),Normalized to Aprotinin =1 (protection) ([1]; replicate 2),Normalized to Aprotinin =1 (protection) ([1]; replicate 3),Normalized to Aprotinin =1 (protection) ([2]; replicate 1),Normalized to Aprotinin =1 (protection) ([2]; replicate 2),Normalized to Aprotinin =1 (protection) ([2]; replicate 3),Normalized to Aprotinin =1 (protection) ([3]; replicate 1),Normalized to Aprotinin =1 (protection) ([3]; replicate 2),Normalized to Aprotinin =1 (protection) ([3]; replicate 3),"Inhibition of bacterial growth, in words [4]",Normalized to Aprotinin =1 (protection) ([5]; replicate 1),Normalized to Aprotinin =1 (protection) ([5]; replicate 2),Normalized to Aprotinin =1 (protection) ([5]; replicate 3)
IDPKLLESLA-NH2 (C-terminus assumed) [U-MYRTX-Mrub2a],0.008341,0.1091,0.1749,0.07403,0.07306,0.0814,0.08852,0.1729,0.1453,no significant inhibition of bacterial growth,0.09958,0.07892,0.1212
IDPKVLESLA-NH2 (C-terminus assumed) [U-MYRTX-Mrug2a],0.01558,0.02606,0.02908,-0.00333,0.002305,-0.007789,0.03996,0.0417,0.07904,no significant inhibition of bacterial growth,0.06351,0.02791,0.04387
IDRSEKTERE-NH2 (C-terminus assumed) [U-MYRTX-Mrub3a],0.02341,0.02308,0.03331,0.05191,0.05042,0.0422,0.04706,0.1383,0.1034,no significant inhibition of bacterial growth,0.1064,0.05676,0.1027
IDSKAIKSLQ-NH2 (C-terminus assumed) [U-MYRTX-Mrub4b/Mrug3a],0.03499,0.02676,0.02366,0.02574,0.02301,0.02813,0.05327,0.08884,0.1216,no significant inhibition of bacterial growth,0.06966,0.08008,0.07436
IDVYFILHLP-NH2 (C-terminus assumed) [U-MYRTX-Mrug4b],0.01102,0.01257,0.01675,-0.007928,–,0.0256,0.03762,0.02626,0.09882,–,0.06728,0.05537,0.07138
aprotinin [reference compound],1,1,1,1,1,1,1,1,1,–,1,1,1
